Experimental data published in patent publication US9073961B2, “Substitution derivatives of N6 -benzyladenosine-5′-monophosphate, methods of preparation thereof, use thereof as medicaments, and therapeutic preparations containing these compounds” (UNIVERZITA PALACKEHO V OLOMOUCI, priority 2010, dated 2015).

Columns and labels:
[1] = test system: HOS (human osteogenic sarcoma); test: Calcein AM cytotoxicity assay, HOS; assay type: cell-based; details: 72 hours incubation
Procedure, shortened: (§1)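 Growth inhibition over 72 h of compound treatment, read by calcein fluorescence (Calcein AM 1 μg/ml final, 1 h). GI50 calculated from triplicate six-point, 3-fold dose-response curves starting at 166.7 μM.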

[2] = test system: K-562 (human erythroleukemia); test: Calcein AM cytotoxicity assay, K-562; assay type: cell-based; details: 72 hours incubation
Procedure, shortened: as §1

MCF-7 (breast carcinoma) = test: Calcein AM cytotoxicity assay, MCF7; assay type: cell-based; details: 72 hours incubation
Procedure, shortened: as §1

[3] = test system: Normal human fibroblasts BJ; test: Calcein AM cytotoxicity assay, BJ; assay type: cell-based; details: 72 hours incubation
Procedure, shortened: as §1

[4] = test system: G-361 (human malignant melanoma); test: Calcein AM cytotoxicity assay, G-361; assay type: cell-based; details: 72 hours incubation
Text: Because toxic compounds negatively influence metabolic processes in cells, many standard cytotoxicity assays are based on measurement of metabolisation rate of various artificial substrates. Resulting product is then quantified e.g. by means of spectrometry. The assays can be easily modified for use in 96-well plates. For evaluation of cytotoxic effect of the novel substituted 9-substituted cytokinin derivatives of this invention, a microtiter assay based on quantification of metabolisation of Calcein AM was used. The assay is widely used in drug screening programs and in chemosensitivity testing. In the living cells, Calcein AM is enzymatically hydrolysed and accumulation of resulting calcein is manifested by green fluorescence.
In the routine screening the following cell lines have been used: CEM (T-lymphoblastoid leukemia), HL-60 (promyelocytic leukemia), K-562 (human erythroleukemia), MCF-7 (breast carcinoma), HOS (human osteogenic sarcoma), and G-361 (human malignant melanoma). Normal human fibroblasts BJ were used as a control for routine screening of the compounds. The cells were kept in Nunc/Corning 80 cm^2 plastic bottles and grown in cell culture medium (DMEM containing 5 g/l glucose, 2 mM glutamine, 100 U/ml penicilline, 100 μg/ml streptomycine, 10% fetal bovine serum and sodium hydrogencarbonate), the compounds were prepared according to the procedure of the present invention.
The cell suspensions were prepared and diluted according to the particular cell type and the expected target cell density (2.500-30.000 cells per well based on cell growth characteristics) and pippetted (80 μl) into 96-well plates. Inoculates were allowed a pre-incubation period of 24 hours at 37° C. and 5% CO2 for stabilisation. Tested compound was added in total volume of 20 μl of water at time zero. Usually, test compound was evaluated at six 3-fold dilutions. In routine testing, the highest concentration tested was 166.7 μM. All drug concentrations were tested in triplicates. Incubations of cells with the test compounds lasted for 72 hours at 37° C., in 5% CO2 atmosphere and 100% humidity. At the end of incubation period Calcein AM in PBS was added into final concentration of 1 μg/ml. After another 1 hour of incubation fluorescence (FD) was measured with the Labsystem FIA Reader Fluoroscan Ascent (Microsystems). Tumor cell survival (TCS) was estimated using the following equation: […]=(FDdrug exposed well/FDcontrol well)×100%. The GI50 value, the drug concentration causing 50% reduction of esterase activity, was calculated from the obtained dose response curves (FIG. 1).
Cytoxicity of novel compounds was tested on panel of cell lines of different histogenetic and species origin (Table 3). […] The effective novel derivatives killed tumour cells in concentrations close to 0.1-50 μM.

[5] = test system: CEM (T-lymphoblastoid leukemia); test: Calcein AM cytotoxicity assay, CEM; assay type: cell-based; details: 72 hours incubation, Calcein AM
Procedure, shortened: as §1

[6] = test system: HL-60 (promyelocytic leukemia); test: Calcein AM cytotoxicity assay, HL60; assay type: cell-based, human; details: 72 hours incubation
Procedure, shortened: as §1

Human lymphocytes = test: Immunosuppressive activity, 3H-thymidine incorporation in concanavalin A activated lymphocytes; assay type: cell-based; details: 72 hours, [3H]-TdR incorporation, read-out: Human lymphocytes ED50
Text: One of the most important parameters of specific cellular immunity is the proliferative response of lymphocytes to antigens or polyclonal mitogens. The majority of normal mammalian peripheral lymphocytes comprise resting cells. Antigens or nonspecific polyclonal mitogens have the capacity to activate lymphoid cells and this is accompanied by dramatic changes of intracellular metabolism (mitochondrial activity, protein synthesis, nucleic acids synthesis, formation of blastic cells and cellular proliferation). […] Variety of in vitro assays was developed to measure proliferative response of lymphocytes. The most commonly used is ^3H-thymidine incorporation method.
During cell proliferation, DNA has to be replicated before the cell is divided into two daughter cells. This close association between cell doublings and DNA synthesis is very attractive for assessing cell proliferation. If labelled DNA precursors are added to the cell culture, cells that are about to divide incorporate the labelled nucleotide into their DNA. Traditionally, those assays usually involve the use of radiolabelled nucleosides, particularly tritiated thymidine ([^3H]-TdR). The amount of [^3H]-TdR incorporated into the cellular DNA is quantified by liquid scintillation counting.
Human heparinized peripheral blood was obtained from healthy volunteers by cubital vein punction. The blood was diluted in PBS (1:3) and mononuclear cells were separated by centrifugation in Ficoll-Hypaque density gradient (Pharmacia, 1.077 g/ml) at 2200 rpm for 30 minutes. Following centrifugation, lymphocytes were washed in PBS and resuspended in cell culture medium (RMPI 1640, 2 mM glutamine, 100 U/ml penicillin, 100 μg/ml streptomycin, 10% fetal calf serum and sodium bicarbonate).
The cells were diluted at target density of 1.100.000 cells/ml and were added by pipette (180 μl) into 96-well microtiter plates. Four-fold dilutions of the intended test concentration were added at time zero in 20 μl aliquots to the microtiter plate wells. Usually, test compound was evaluated at six 4-fold dilutions. In routine testing, the highest well concentration was 266.7 μM. All drug concentrations were examined in duplicates. All wells with exception of unstimulated controls were activated with 50 μl of concanavalin A (25 μg/ml). Incubations of cells with test compounds lasted for 72 hours at 37° C., in 5% CO2 atmosphere and 100% humidity. At the end of incubation period, the cells were assayed by using the [^3H]-TdR:
Cell cultures were incubated with 0.5 μCi (20 μl of stock solution 500 μCi/ml) per well for 6 hours at 37° C. and 5% CO2. The automated cell harvester was used to lyse cells in water and adsorb the DNA onto glass-fiber filters in the format of microtiter plate. The DNA incorporated [^3H]-TdR was retained on the filter while unincorporated material passes through. The filters were dried at room temperature overnight, sealed into a sample bag with 10-12 ml of scintillant. The amount of [^3H]-TdR present in each filter (in cpm) was determined by scintillation counting in a Betaplate liquid scintillation counter. The effective dose of immunosuppressant (ED) was calculated using the following equation: ED=(CCPMdrug exposed well/mean CCPMcontrol wells)×100%. The ED50 value, the drug concentration inhibiting proliferation of 50% of lymphocytes, was calculated from the obtained dose response curves.
To evaluate immunosuppressive activity of substituted adenines, their ability to inhibit polyclonal mitogen induced proliferation of normal human lymphocytes was analyzed (Table 4). […] Effective immunosuppressive dose of new derivatives under in vitro conditions was close to 10-40 μM.

p21^WAF-1 = test: Induction of p21WAF-1 expression in MCF-7 cells (immunoblot); assay type: cell-based
Method: MCF-7 cells cultured at 37° C. in 5% CO2 atmosphere in DMEM medium supplemented with 10% foetal calf serum were treated with compound 28 concentration ranges of 0-100 μM. Compound 28 was added into the medium from the 100 mM stock solution in DMSO. Cells were harvested 12 hours after incubation with compound 28, centrifuged (1000 rpm, 4° C., 5 min), washed twice by ice-cold PBS and re-centrifuged. These washed cells were then lysed by 1×CSB (loading buffer for SDS-PAGE, i.e. electrophoresis of proteins in polyacrylamide gel containing SDS). Cell lysate proteins were separated by SDS-PAGE and transferred onto a nitrocelulose (NC) membrane. NC membrane was blocked by 5% skimmed milk, 0.1% Tween 20 in PBS. Protein level of p21^WAF-1 and actin (as a loaded protein volume control) were detected immunochemically using commercially available specific monoclonal antibodies anti-p21^WAF-1 (Ab-1, Calbiochem) and anti-Actin (Clone AC-40, Sigma-Aldrich). The primary antibodies bind to target proteins were detected using rabbit secondary peroxidase-labeled antibody (RAM-Px, DAKO), followed by chemiluminiscence (ECL, Amersham-Pharmacia).
MCF-7 cells were incubated in the presence of 1 μmol of compound 28. In various time intervals from the moment of administration of 28 the cells were harvested and lyzed. […]

For `COc1cccc(CNc2ncnc3c2ncn3[C@@H]2O[C@H](COP(=O)(O)O)[C@@H](O)[C@H]2O)c1O` [Compound 28, 6-(2-hydroxy-3-methoxybenzylamino)purine riboside-5′-monophosphate], the GI50 [1] was 24.1 µM, the GI50 [2] was 2.1 µM and the GI50 (MCF-7 (breast carcinoma)) was 30.4 µM. The GI50 [3] was 69.7 µM, the GI50 [4] was 27.9 µM and the GI50 [5] was 0.3 µM. For the same compound, the GI50 [6] was 0.5 µM, the EC50 (Human lymphocytes) was 1.2 µM and the “time of effective induction of p21^WAF-1 after addition” value (p21^WAF-1; 1 μmol concentration) was 6 to 24 h. For the same compound, the “p21^WAF-1 protein induction in relation to concentration” value (p21^WAF-1; 12 hours, 0-100 μM tested, effective in range of units imol per liter) was “efficient p21^WAF-1 protein induction is achieved”.
